Compared with CCCCc1ccccc1 [butylbenzene], CCCCCCCc1ccccc1 [heptylbenzene] is higher in flash point: 49 °C for the first, 95 °C for the second.

CC(C)Cc1ccccc1 [isobutylbenzene] gave a flash point of 55 °C.

remark: another data set of the same source

Compared with CCCCc1ccccc1 [butylbenzene], CCCCCCc1ccccc1 [hexylbenzene] is higher in flash point: 58.1 °C for the first, 83.6 °C for the second.

Compared with CCc1ccc(C(C)C)cc1 [p -ethylcumene], CCc1cccc(C(C)C)c1 [m -ethylcumene] is lower in flash point: 65.8 °C for the first, 63 °C for the second.

First: CCCCc1cccc(CCCC)c1 [1,3-dibutylbenzene]
Second: CCCCc1cccc(C)c1 [1-butyl-3-methylbenzene]
The flash point of the first is higher: 109.2 °C for the first, 70.8 °C for the second.

Compared with Cc1ccccc1C(C)(C)C [2-tert -butyltoluene], CC(C)(C)c1ccccc1 [tert -butylbenzene] is lower in flash point: 61.5 °C for the first, 44.1 °C for the second.

First: CCCc1ccc(C)cc1 [p -propyltoluene]
Second: CCCCc1ccc(C)cc1 [1-butyl-4-methylbenzene]
The flash point of the first is lower: 56.4 °C for the first, 71.2 °C for the second.

Going from Cc1ccc(C)c(C(C)C)c1 [1,4-dimethyl-2-isopropylbenzene] to Cc1ccccc1CC(C)C [1-isobutyl-2-methylbenzene], the flash point rises from 64.7 °C to 68.7 °C.

Going from CCCCCCCc1ccccc1 [heptylbenzene] to CC(C)Cc1ccccc1 [isobutylbenzene], the flash point falls from 95.5 °C to 50.1 °C.

First: CC(C)(C)c1ccc(C(C)(C)C)cc1 [1,4-di-tert -butylbenzene]
Second: Cc1cc(C)cc(C(C)(C)C)c1 [1-tert -butyl-3,5-dimethylbenzene]
The flash point of the first is higher: 97.0 °C for the first, 72 °C for the second.

First: CCCc1cccc(C)c1 [m -propyltoluene]
Second: CCc1cccc(CC)c1 [m -diethylbenzene]
The flash point of the first is higher: 52 °C for the first, 51.1 °C for the second.

Compared with CC(C)CC(C)Cc1ccccc1 (configuration not stated) [(2,4-dimethylpentyl)benzene], CC(C)(C)Cc1ccccc1 [neopentylbenzene] is lower in flash point: 87.0 °C for the first, 50.1 °C for the second.

Compared with CCc1cccc(CC)c1CC [1,2,3-triethylbenzene], CCc1cccc(C)c1C [1-ethyl-2,3-dimethylbenzene] is lower in flash point: 79 °C for the first, 65.1 °C for the second.

First: CCC(C)(C)c1ccccc1 [2-phenyl-2-methylbutane]
Second: CCc1c(C)cccc1C [2-ethyl-1,3-dimethylbenzene]
The flash point of the first is lower: 59.4 °C for the first, 62.0 °C for the second.

Going from Cc1cc(C)cc(C)c1 [1,3,5-trimethylbenzene] to CCc1cc(C)cc(C)c1 [1-ethyl-3,5-dimethylbenzene], the flash point rises from 44.1 °C to 57.4 °C.

remark: another data set of the same source

Compared with C[O-].C[O-].C[O-].C[O-].[Ti+4] [TITANIUM METHOXIDE], CC(C)[O-].CC(C)[O-].CC(C)[O-].[B+3] [BORON ISOPROPOXIDE] is lower in flash point: 48.00 °C for the first, 28.00 °C for the second.

CC[N-]C.CC[N-]C.CC[N-]C.CC[N-]C.[Zr+4] [ZIRCONIUM TETRAKIS(ETHYLMETHYLAMIDE)] and CC[N-]C.CC[N-]C.CC[N-]C.CC[N-]C.[Hf+4] [HAFNIUM TETRAKIS(ETHYLMETHYLAMIDE)] are the same in flash point: 10.00 °C for the first, 10.00 °C for the second.

Going from C[CH2][Pb]([CH2]C)([CH2]C)[CH2]C [TETRAETHYLLEAD] to CCCC[O-].CCCC[O-].CCCC[O-].[B+3] [BORON n-BUTOXIDE], the flash point rises from 73.00 °C to 93.00 °C.

CCCCC(CC)C(=O)[O-].CCCCC(CC)C(=O)[O-].[Ca+2] (configuration not stated) [CALCIUM 2-ETHYLHEXANOATE] and CCCCC(CC)C(=O)[O-].CCCCC(CC)C(=O)[O-].[Zn+2] (configuration not stated) [ZINC 2-ETHYLHEXANOATE] are the same in flash point: 127.00 °C for the first, 127.00 °C for the second.

First: Cc1ccccc1[O-].Cc1ccccc1[O-].Cc1ccccc1[O-].Cc1ccccc1[O-].[Ti+4] [TITANIUM METHYLPHENOXIDE]
Second: c1ccc(Pc2ccccc2)cc1 [DIPHENYLPHOSPHINE]
The flash point of the first is lower: 66.00 °C for the first, 110.00 °C for the second.

Going from C=C[c-]1cccc1.[Fe+2].c1cc[cH-]c1 [VINYLFERROCENE] to [CH3][Cd][CH3] [DIMETHYLCADMIUM], the flash point falls from 62.00 °C to -18.00 °C.

remark: another data set of the same source

Work on CCC(C)(C)c1ccccc1 [2-phenyl-2-methylbutane] yielded a flash point of 65 °C.

From a flash point compilation (Sun et al. 2020)
